Consider twelve compounds from PubChem BioAssay (NCI).

Among the test systems are SW-620 colon; HCT-15 colon; SF-295 CNS; IGROV1 ovarian; ACHN renal; CAKI-1 renal; SR leukemia; BT-549 breast; MCF7 breast; MDA-MB-231 breast.
Common to all, as to experiment: inhibition of tumour cell growth, NCI panel, 48 h

Where “and” joins values, the source holds several entries; their conditions need not be identical. Equal values may be shown once.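 Cells were grown in 96-well plates and exposed to each compound for 48 hours at five concentrations; endpoints were interpolated linearly between bracketing concentrations, or set to the highest concentration if not reached. GI50 marks 50% less growth. TGI denotes the concentration required for complete inhibition of growth.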

Take `CCCCCCCCC/C=C/C=C/C(=O)NCC(=O)NC1C(O)C(O)C(Nc2ncnc3nc[nH]c23)OC1C(O)CO` (centres undefined): the GI50 is 0.00284 µM in the assay with SW-620 colon; 2.05 µM in the assay on HCT-15 colon; 0.0441 µM in the assay with SF-295 CNS; 0.0144 µM with ACHN renal; 0.765 µM with SR leukemia. In addition, the TGI in the assay with SW-620 colon is 0.112 µM; with SF-295 CNS, 1.08 µM and 8.98 µM; with IGROV1 ovarian it was 0.00337 µM; in the assay on CAKI-1 renal, 0.0105 µM and 0.0747 µM.

With `Cc1c(N2C(=O)CS(=O)(=O)C2c2cccc(Oc3ccccc3)c2)c(=O)n(-c2ccccc2)n1C` (centres undefined), the TGI with SW-620 colon, in the assay with HCT-15 colon, in the assay with SF-295 CNS, in the assay on BT-549 breast, in the assay on IGROV1 ovarian and with ACHN renal was more than 100 µM in each case. In addition, the TGI in the assay on CAKI-1 renal, in the assay with MCF7 breast and with MDA-MB-231 breast was more than 100 µM in each case.

In the case of `Nc1ccccc1S(=O)(=O)c1ccccc1`, the TGI in the assay on SW-620 colon, in the assay on HCT-15 colon, in the assay with SF-295 CNS, in the assay with IGROV1 ovarian, with ACHN renal and in the assay with SR leukemia was more than 100 µM throughout.

On to `Nc1nc(SCCc2ccccc2)nc2nc3c(c(-c4ccccc4)c12)CCCC3`, for which the TGI with SW-620 colon, in the assay on HCT-15 colon, in the assay with SF-295 CNS, in the assay with BT-549 breast, in the assay on IGROV1 ovarian and with ACHN renal was more than 100 µM throughout. For the same compound, the TGI in the assay on CAKI-1 renal, with MCF7 breast and in the assay on MDA-MB-231 breast was more than 100 µM throughout.

`COc1cc2c(ccc3c4cc(OC)c(OC)cc4c[n+](C)c23)cc1O`: the TGI with SW-620 colon was more than 47.3 µM; in the assay on HCT-15 colon it was more than 75 µM; in the assay with SF-295 CNS, 54.9 µM; in the assay on IGROV1 ovarian, more than 75 µM; in the assay with CAKI-1 renal, more than 75 µM; in the assay on MCF7 breast it was more than 75 µM.

As to `CNC(=O)OCc1c(CO)nc(SC)n1C`, the TGI with SW-620 colon, in the assay on HCT-15 colon, in the assay with SF-295 CNS, in the assay on IGROV1 ovarian, in the assay on CAKI-1 renal and in the assay with MCF7 breast was more than 100 µM in each case.

Regarding `CCOC(=O)C1=NN(c2ccc(C)cc2)C2=CC(C)=NN(C)C(=S)N21`, the TGI with SW-620 colon, in the assay with HCT-15 colon, in the assay on SF-295 CNS, with BT-549 breast, in the assay with IGROV1 ovarian and in the assay with ACHN renal was more than 100 µM throughout. The figures for the TGI in the assay on CAKI-1 renal, in the assay with SR leukemia and with MDA-MB-231 breast were 55.1 µM, more than 100 µM and more than 100 µM, respectively.

Take `O=c1cccccc1[O-].O=c1cccccc1[O-].[O]=[U+2]=[O]`: the TGI with SW-620 colon was more than 100 µM; in the assay with HCT-15 colon, more than 100 µM; in the assay on SF-295 CNS, 41.5 µM; with IGROV1 ovarian it was 50.9 µM; in the assay with ACHN renal, 48 µM; in the assay on CAKI-1 renal, 56.4 µM.

Regarding `O=C(OCN1C(=O)C2C3C=CC(C2C1=O)C1C2C(=O)N(COC(=O)C4CCCN4)C(=O)C2C31)C1CCCN1` (centres undefined), the TGI in the assay with SW-620 colon was more than 72.2 µM; in the assay with HCT-15 colon, more than 58.7 µM; in the assay on SF-295 CNS it was more than 100 µM; in the assay with IGROV1 ovarian, more than 100 µM; with ACHN renal, more than 83.4 µM; in the assay with CAKI-1 renal, more than 100 µM. In the assay on SR leukemia, this compound returned a TGI of 26.4 µM.

With `[N-]=[N+]=CC(=O)c1ccccc1C#CCCc1ccccc1`, the TGI is more than 100 µM in the assay with SW-620 colon; more than 100 µM with HCT-15 colon; more than 100 µM in the assay with SF-295 CNS; more than 100 µM with IGROV1 ovarian; 68.8 µM in the assay on ACHN renal; more than 100 µM with SR leukemia.

Take `CCC(C)C1=C(OC(C)=O)[N+]2([O-])Oc3ccc(-c4c(OC(C)=O)c(OC(C)=O)c(-c5ccc(OC(C)=O)cc5)c(OC(C)=O)c4OC(C)=O)cc3OC2(C(C)CC)C(=O)N1OC(C)=O` (centres undefined): the TGI in the assay on SW-620 colon is more than 50 µM; in the assay on HCT-15 colon, more than 50 µM; in the assay on SF-295 CNS it was 21.8 µM; with IGROV1 ovarian it was 34.4 µM; in the assay on ACHN renal, more than 50 µM; in the assay on CAKI-1 renal, more than 50 µM. The values for the TGI in the assay with SR leukemia, in the assay with MCF7 breast and in the assay with MDA-MB-231 breast were 30.6 µM, more than 50 µM and more than 50 µM, respectively.

For the compound `COc1cc2c(cc1O)CC[C@@H]1[C@@H]2CC[C@]2(C)[C@@H](OCCN(C)C)CC[C@@H]12`, the GI50 in the assay with SW-620 colon was 0.163 µM; with IGROV1 ovarian it was 0.818 µM; in the assay on CAKI-1 renal, 1.45 µM; in the assay on SR leukemia, 0.148 µM; with MCF7 breast it was 0.17 µM; with MDA-MB-231 breast it was 0.153 µM. For the same compound, the TGI in the assay with SW-620 colon turned out to be 0.763 µM; in the assay with IGROV1 ovarian, 5.94 µM; in the assay on CAKI-1 renal it was 6.19 µM; in the assay with SR leukemia, 0.894 µM; with MCF7 breast it was 0.884 µM; with MDA-MB-231 breast, 0.595 µM.
